Measured values published in patent US20220151959A1, “METHOD FOR TREATING ALLERGIC SKIN DISEASE OR PRURITUS CUTANEOUS” (KOREA RESEARCH INSTITUTE OF BIOSCIENCE AND BIOTECHNOLOGY, priority 2019, published 2022).

Legend:
[1] = tested on: filaggrin; test: Filaggrin expression in mouse skin tissue after colchicine application (qPCR); format: in vivo, mice; conditions: 0.04% (w/w) and 0.1% (w/w) applied on back and ear skin twice a week for 4 weeks or more, FIG. 1
Method: Specifically, colchicine was continuously applied on back and ear skin areas of laboratory mice at a low concentration of 0.04% (w/w) and at a high concentration of 0.1% (w/w) twice a week for 4 weeks or more. After completing the application experiment, a skin tissue was collected from each mouse and crushed with a tissue crusher to extract RNA. The crushed tissue powder was dissolved in a Trizol reagent solution (Sigma) and RNA was extracted using a RNeasy mini kit (Qiagen). The extracted RNA was reverse-transcribed to cDNA using IMPROM-II™ Reverse Transcription kit (Promega), and then an amount of filaggrin present in the skin tissue was measured by a quantitative PCR (qPCR) method using CFX96™ Real-Time PCR Detection System (Bio-Rad).

[2] = tested on: interleukin-13 (IL-13); test: Inflammatory cytokine expression in skin tissue of oxazolone model (qPCR), IL-13; format: in vivo, mouse; conditions: group treated with both colchicine (0.05%) and oxazolone, compared with oxazolone treatment, FIG. 5
Method: (§1) Specifically, 150 μl of 3% 4-ethoxymethylene-2-phenyl-2-oxazolin-5-one (oxazolone) was applied on an abdominal skin of a 6-week-old laboratory animal to induce an immune response, and 20 μl of the same compound diluted to 0.1% was applied on the ear of a laboratory animal 3 times a week (total 6 times) to induce a skin disease. The ear of the laboratory animal was treated with 20 μl of the colchicine according to the present invention at a concentration of 0.05% 3 times a week (total 6 times). A negative control group treated with only ethanol which was a solvent and a positive control group treated with only oxazolone were also reflected in the experiment. The number of mice in each experiment group was maintained at 10 or more and the experiment was repeated 3 times.
(§2) After completing the application experiment of Example 2, a skin tissue was collected from each mouse and crushed with a tissue crusher to extract RNA. The crushed tissue powder was dissolved in a Trizol reagent solution (Sigma) and RNA was extracted using a RNeasy mini kit (Qiagen). The extracted RNA was reverse-transcribed to cDNA using ImProm-II™ Reverse Transcription kit (Promega), and then a cytokine degree present in the skin tissue was measured by a quantitative PCR (qPCR) method using CFX96™ Real-Time PCR Detection System (Bio-Rad). […]

[3] = tested on: allergic skin disease model (atopic dermatitis model) mouse derived by oxazolone; test: Oxazolone-derived allergic skin disease (atopic dermatitis) model mouse: naked-eye observation and Hematoxylin and Eosin staining of ear skin; format: in vivo
Method: as §1
In addition, for pathological observation of skin after completing the application, an ear skin tissue of each mouse was collected and stained with Hematoxylin and Eosin, and the results are shown in FIG. 4.

[4] = tested on: interleukin-4 (IL-4); test: Inflammatory cytokine expression in skin tissue of oxazolone model (qPCR), IL-4; format: in vivo, mouse; conditions: group treated with both colchicine (0.05%) and oxazolone, compared with oxazolone treatment, FIG. 5
Method: as §1, §2

[5] = Moisture loss, skin barrier index and composite index by transdermal moisture loss meter (Tewameter); format: in vivo, mice
Method: Colchicine was continuously applied on back and ear skin areas of laboratory mice at concentration of 0.05% (w/w) twice a week for 4 weeks or more, and then a moisture loss and skin barrier and composite indexes were measured by a transdermal moisture loss meter (Tewameter).
The experiment results are shown in FIG. 2, and were compared with an experiment animal group with no colchicine applied.

[6] = 20 μl of 0.05% colchicine on ear, total 6 times, with oxazolone treatment, H&E staining of ear skin, FIG. 4
[7] = 0.05% (w/w) on back and ear skin twice a week for 4 weeks or more, Tewameter, vs group with no colchicine applied, FIG. 2

## COc1cc2c(c(OC)c1OC)-c1ccc(OC)c(=O)cc1[C@@H](NC(C)=O)CC2 [colchicine]
[1]
  expression amount of filaggrin: increased an expression amount of filaggrin concentration-dependently
[2]
  expression level of IL-13 in skin tissue: ≤ 50%
[3]; 20 μl of 0.05% colchicine on ear 3 times a week (total 6 times), simultaneously with oxazolone, FIG. 3
  skin condition observed with the naked eye (ear): very similar to that of a normal group treated with only a solvent
[3]; [6]
  epithelial thickness: decreased to a degree very similar to the normal case
  total skin thickness: decreased to a degree very similar to the normal case
[3]; control group treated with only colchicine, H&E staining of ear skin
  skin abnormal symptom: not detected
[4]
  expression level of IL-4 in skin tissue: ≤ 50%
[5]; [7]
  skin barrier index: greatly increased
  skin composite index: greatly increased
  skin moisture loss: decreased
[5]; skin application to mice for 4 weeks or more
  side effect with long-term application: without any side effect
